# Measured values published in patent US6420330B1, “Use of quaternary carboxylic acid alkanolamine ester salts as microbicide agents” (Cognis Deutschland GmbH, priority 1997, dated 2002).
# Legend:
# Type in all cases: cell-based
# [1] = system: Microsporum gypseum; assay: DGHM suspension test, other bacteria and fungi
# Method: (§1) The effectiveness of the compound to be tested was determined by the suspension test in accordance with the guidelines of the Deutsche Gesellschaft for Hygiene and Mikrobiologie (DGHM). Test solutions containing quatemary carboxylic acid alkanolamine ester salts in the quantities shown in the Tables of 50, 100, 200, 400 and 800 mg/l were prepared using water with a hardness of 17° dH and optionally isopropanol. At room temperatures, quantities of 0.1 ml test germ suspension were pipetted into test tubes containing 10 ml of the test solutions described above and mixed. After various contact times of 5, 15, 30 and 60 minutes, 1 ml of material was taken from the test tubes by pipette and transferred to 9 ml inactivator solution (inactivators: 3.0% Tween, 0.3% lecithin, 0.1% histidine). After in activation for at least 5 and at most 30 minutes, the living germ count was determined by plating out onto casein peptone-soybean flour peptone (CaSo)-agar plates. Using a spiral plater, the inactivating mixture was directly plated out onto CaSo-agar. The samples were incubated for 24 to 72 hours at 37° C. and macroscopically evaluated for growth. The destruction time or the residual germ count was determined in this way. The germ count of an unchallenged water control is related to the germ count of the inactivated test solution taking the dilution into account. The higher the value, the better the microbicidal effect. The symbol < means that the logarithmic reductuon factor is below the indicated value or, in the case of the symbol >, above the indicated value. The abbreviation CU stands for “concentration used”. Methyl triethanolammonium dioctanoic acid ester methosulfate was tested as in A) against the bacteria
# [2] = system: Escherichia coli; assay: DGHM suspension test, other bacteria and fungi
# Method: as §1
# [3] = system: Salmonella enteritidis; assay: DGHM suspension test, other bacteria and fungi
# Method: as §1
# [4] = system: Enterococcus faecium; assay: DGHM suspension test, other bacteria and fungi
# Method: as §1
# [5] = system: Trichophyton mentagrophytes; assay: DGHM suspension test, other bacteria and fungi
# Method: as §1
# [6] = system: Staphylococcus aureus ATCC 6538; assay: DGHM suspension test, microbicidal activity
# Method in brief: (§2)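 DGHM suspension test at room temperature: 0.1 ml germ suspension into 10 ml test solution (50–800 mg/l in 17° dH water, optionally isopropanol). After 5, 15, 30 and 60 minutes contact, samples inactivated (Tween/lecithin/histidine), plated on CaSo-agar, incubated 24–72 hours at 37° C. Log reduction versus unchallenged water control.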
# [7] = system: Pseudomonas aeruginosa ATCC 15442; assay: DGHM suspension test, microbicidal activity
# Method in brief: as §2
# [8] = system: Candida albicans ATCC 10231; assay: DGHM suspension test, microbicidal activity
# Method in brief: as §2
# [9] = CU 50 mg/l, contact time 5 mins.
# [10] = CU 50 mg/l, contact time 15 mins.
# [11] = CU 50 mg/l, contact time 30 mins.
# [12] = CU 50 mg/l, contact time 60 mins.
# [13] = CU 100 mg/l, contact time 5 mins.
# [14] = CU 100 mg/l, contact time 15 mins.
# [15] = CU 100 mg/l, contact time 30 mins.
# [16] = CU 100 mg/l, contact time 60 mins.
# [17] = CU 200 mg/l, contact time 5 mins.
# [18] = CU 200 mg/l, contact time 15 mins.
# [19] = CU 200 mg/l, contact time 30 mins.
# [20] = CU 200 mg/l, contact time 60 mins.
# [21] = CU 400 mg/l, contact time 5 mins.
# [22] = CU 400 mg/l, contact time 15 mins.
# [23] = CU 400 mg/l, contact time 30 mins.
# [24] = CU 400 mg/l, contact time 60 mins.
# [25] = CU 800 mg/l, contact time 5 mins.
# [26] = CU 800 mg/l, contact time 15 mins.
# [27] = CU 800 mg/l, contact time 30 mins.
# [28] = CU 800 mg/l, contact time 60 mins.
compound,measurement,setting,value
"CCCCCCCC(=O)OCC[N+](C)(CCO)CCOC(=O)CCCCCCC.COS(=O)(=O)[O-] [Example 11, Methyl triethanolammonium dioctanoic acid ester methosulfate]",logarithmic reduction rate,"[1]; 50 ppm, 5 Mins.",>3.52
same,logarithmic reduction rate,"[1]; 50 ppm, 15 Mins.",>3.58
same,logarithmic reduction rate,"[1]; 50 ppm, 60 Mins.",>3.62
same,logarithmic reduction rate,"[1]; 100 ppm, 5 Mins.",>3.52
same,logarithmic reduction rate,"[1]; 100 ppm, 15 Mins.",>3.58
same,logarithmic reduction rate,"[1]; 100 ppm, 60 Mins.",>3.62
same,logarithmic reduction rate,"[1]; 200 ppm, 5 Mins.",>3.52
same,logarithmic reduction rate,"[1]; 200 ppm, 15 Mins.",>3.58
same,logarithmic reduction rate,"[1]; 200 ppm, 60 Mins.",>3.62
same,logarithmic reduction rate,"[1]; 400 ppm, 5 Mins.",>3.52
same,logarithmic reduction rate,"[1]; 400 ppm, 15 Mins.",>3.58
same,logarithmic reduction rate,"[1]; 400 ppm, 60 Mins.",>3.62
same,killing of the fungus Microsporum gypseum,"[1]; concentration of 50 mg/l, shortest contact time",almost completely killed off
same,logarithmic reduction rate,"[2]; 50 ppm, 5 Mins.",4.12
same,logarithmic reduction rate,"[2]; 50 ppm, 15 Mins.",>5.62
same,logarithmic reduction rate,"[2]; 50 ppm, 60 Mins.",>5.76
same,logarithmic reduction rate,"[2]; 100 ppm, 5 Mins.",>5.58
same,logarithmic reduction rate,"[2]; 100 ppm, 15 Mins.",>5.62
same,logarithmic reduction rate,"[2]; 100 ppm, 60 Mins.",>5.76
same,logarithmic reduction rate,"[2]; 200 ppm, 5 Mins.",>5.58
same,logarithmic reduction rate,"[2]; 200 ppm, 15 Mins.",>5.62
same,logarithmic reduction rate,"[2]; 200 ppm, 60 Mins.",>5.76
same,logarithmic reduction rate,"[2]; 400 ppm, 5 Mins.",>5.58
same,logarithmic reduction rate,"[2]; 400 ppm, 15 Mins.",>5.62
same,logarithmic reduction rate,"[2]; 400 ppm, 60 Mins.",>5.76
same,logarithmic reduction rate,"[3]; 50 ppm, 5 Mins.",<1.8
same,logarithmic reduction rate,"[3]; 50 ppm, 15 Mins.",3.29
same,logarithmic reduction rate,"[3]; 50 ppm, 60 Mins.",3.67
same,logarithmic reduction rate,"[3]; 100 ppm, 5 Mins.",3.96
same,logarithmic reduction rate,"[3]; 100 ppm, 15 Mins.",5.12
same,logarithmic reduction rate,"[3]; 100 ppm, 60 Mins.",>5.76
same,logarithmic reduction rate,"[3]; 200 ppm, 5 Mins.",4.88
same,logarithmic reduction rate,"[3]; 200 ppm, 15 Mins.",>5.77
same,logarithmic reduction rate,"[3]; 200 ppm, 60 Mins.",>5.76
same,logarithmic reduction rate,"[3]; 400 ppm, 5 Mins.",>5.8
same,logarithmic reduction rate,"[3]; 400 ppm, 15 Mins.",>5.72
same,logarithmic reduction rate,"[3]; 400 ppm, 60 Mins.",>5.76
same,logarithmic reduction rate,"[4]; 50 ppm, 5 Mins.",>6.3
same,logarithmic reduction rate,"[4]; 50 ppm, 15 Mins.",>5.88
same,logarithmic reduction rate,"[4]; 50 ppm, 60 Mins.",>5.96
same,logarithmic reduction rate,"[4]; 100 ppm, 5 Mins.",>6.3
same,logarithmic reduction rate,"[4]; 100 ppm, 15 Mins.",>5.88
same,logarithmic reduction rate,"[4]; 100 ppm, 60 Mins.",>5.96
same,logarithmic reduction rate,"[4]; 200 ppm, 5 Mins.",>6.3
same,logarithmic reduction rate,"[4]; 200 ppm, 15 Mins.",>5.88
same,logarithmic reduction rate,"[4]; 200 ppm, 60 Mins.",>5.96
same,logarithmic reduction rate,"[4]; 400 ppm, 5 Mins.",>6.3
same,logarithmic reduction rate,"[4]; 400 ppm, 15 Mins.",>5.88
same,logarithmic reduction rate,"[4]; 400 ppm, 60 Mins.",>5.96
same,logarithmic reduction rate,"[5]; 50 ppm, 5 Mins.",0.34
same,logarithmic reduction rate,"[5]; 50 ppm, 15 Mins.",0.95
same,logarithmic reduction rate,"[5]; 50 ppm, 60 Mins.",2.04
same,logarithmic reduction rate,"[5]; 100 ppm, 5 Mins.",0.38
same,logarithmic reduction rate,"[5]; 100 ppm, 15 Mins.",0.95
same,logarithmic reduction rate,"[5]; 100 ppm, 60 Mins.",2.05
same,logarithmic reduction rate,"[5]; 200 ppm, 5 Mins.",0.28
same,logarithmic reduction rate,"[5]; 200 ppm, 15 Mins.",0.92
same,logarithmic reduction rate,"[5]; 200 ppm, 60 Mins.",2.16
same,logarithmic reduction rate,"[5]; 400 ppm, 5 Mins.",0.35
same,logarithmic reduction rate,"[5]; 400 ppm, 15 Mins.",0.89
same,logarithmic reduction rate,"[5]; 400 ppm, 60 Mins.",2.29
same,destruction of Trichophyton mentagrophytes,[5]; long contact time (60 minutes),around 2 powers of ten
trimethyl ethanolammonium coconut fatty acid ester methosulfate [Example 4],logarithmic reduction factor,[6]; [9],<1.51
same,logarithmic reduction factor,[6]; [10],<1.36
same,logarithmic reduction factor,[6]; [11],<1.38
same,logarithmic reduction factor,[6]; [12],1.94
same,logarithmic reduction factor,[6]; [13],<1.51
same,logarithmic reduction factor,[6]; [14],1.78
same,logarithmic reduction factor,[6]; [15],3.03
same,logarithmic reduction factor,[6]; [16],4.02
same,logarithmic reduction factor,[6]; [17],<1.51
same,logarithmic reduction factor,[6]; [18],3.4
same,logarithmic reduction factor,[6]; [19],4.38
same,logarithmic reduction factor,[6]; [20],>5.26
same,logarithmic reduction factor,[6]; [21],2.33
same,logarithmic reduction factor,[6]; [22],4.14
same,logarithmic reduction factor,[6]; [23],>5.38
same,logarithmic reduction factor,[6]; [24],>5.26
same,logarithmic reduction factor,[6]; [25],3.12
same,logarithmic reduction factor,[6]; [26],>5.36
same,logarithmic reduction factor,[6]; [27],>5.38
same,logarithmic reduction factor,[6]; [28],>5.26
same,logarithmic reduction factor,[7]; [9],<1.51
same,logarithmic reduction factor,[7]; [10],<1.66
same,logarithmic reduction factor,[7]; [11],<1.46
same,logarithmic reduction factor,[7]; [12],<1.47
same,logarithmic reduction factor,[7]; [13],<1.51
same,logarithmic reduction factor,[7]; [14],<1.66
same,logarithmic reduction factor,[7]; [15],<1.46
same,logarithmic reduction factor,[7]; [16],<1.47
same,logarithmic reduction factor,[7]; [17],<1.51
same,logarithmic reduction factor,[7]; [18],<1.66
same,logarithmic reduction factor,[7]; [19],<1.46
same,logarithmic reduction factor,[7]; [20],<3.35
same,logarithmic reduction factor,[7]; [21],<1.51
same,logarithmic reduction factor,[7]; [22],3.9
same,logarithmic reduction factor,[7]; [23],>5.66
same,logarithmic reduction factor,[7]; [24],>5.47
same,logarithmic reduction factor,[7]; [25],4.02
same,logarithmic reduction factor,[7]; [26],>5.66
same,logarithmic reduction factor,[7]; [27],>5.66
same,logarithmic reduction factor,[7]; [28],>5.47
same,logarithmic reduction factor,[8]; [9],<0.80
same,logarithmic reduction factor,[8]; [10],<0.79
same,logarithmic reduction factor,[8]; [11],0.91
same,logarithmic reduction factor,[8]; [12],1.40
same,logarithmic reduction factor,[8]; [13],1.19
same,logarithmic reduction factor,[8]; [14],3.01
same,logarithmic reduction factor,[8]; [15],>4.80
same,logarithmic reduction factor,[8]; [16],>5.05
same,logarithmic reduction factor,[8]; [17],3.43
same,logarithmic reduction factor,[8]; [18],>4.79
same,logarithmic reduction factor,[8]; [19],>4.80
same,logarithmic reduction factor,[8]; [20],>5.05
same,logarithmic reduction factor,[8]; [21],>4.80
same,logarithmic reduction factor,[8]; [22],>4.79
same,logarithmic reduction factor,[8]; [23],>4.80
same,logarithmic reduction factor,[8]; [24],>5.05
same,logarithmic reduction factor,[8]; [25],>4.80
same,logarithmic reduction factor,[8]; [26],>4.79
same,logarithmic reduction factor,[8]; [27],>4.80
same,logarithmic reduction factor,[8]; [28],>5.05
